“And” between values parts separate entries of the source, which are not always exact repeats. Identical values can stand only once. “Also recorded” adds a separate entry of the source. Like-named read-outs stand apart in the source and are kept apart here. Blank lines part the entries; values can stand above or below the compound they belong to.
What was measured:
native NMDA receptors [1] = assay: Analysis of voltage dependence of NMDA receptor block (Woodhull model with voltage-independent component, Equation (2)); type: cell-based, rat
Procedure: NMDA receptors were activated with 100 µM NMDA plus 10 µM glycine unless otherwise stated. The percentages of blocking of the steady-state or peak currents by different drug concentrations were measured at −80, −30 or +30 mV holding voltages. Kinetics of transient processes of more than 20 ms duration were approximated with single or double exponential functions. In case of double exponential fitting, the weighted time constant was used.
The voltage dependence of compounds’ action was analyzed with the classical Woodhull model with the addition of a voltage-independent component. […] Kb is the affinity of a drug for the channel, and δ is the electrical depth of the binding site. The δ value reflects the fraction of membrane electric field that the charged blocking molecule crosses on its pathway between the external media and the binding site in the channel.
Thus, we deduced Equation (2), taking it into account and assuming that the binding to the deep and shallow site is independent:(2) B=100−100/(1+C/(Kvd∗exp〖Fzδ/RTV〗)+C/Kvi+(C∗C)/((Kvd∗exp〖Fzδ/RTV〗∗Kvi))
In this equation, Kvd is the affinity of the drug to the deep site, Kvi—the affinity of the drug to the shallow site, and other parameters are the same as in Equation (1).
All experimental data are presented as the mean ± SD estimated from at least four experiments (cells). Significance of the effects was tested with t-tests. Differences were considered significant at p < 0.05. Concentration dependencies were approximated with Hill equation. Voltage dependencies were approximated with Equation (2). […] Approximation error values were taken as the precision measures.

native NMDA receptors [2] = details: cited from earlier work
native NMDA receptors [3] = details: cited from earlier work; remark: listed apart in the source
[4] = system: rat retinal excitotoxicity model; details: cited from earlier work
native NMDA receptors [5] = assay: Whole-cell patch clamp of NMDA plus glycine induced currents in isolated CA1 pyramidal neurons; type: cell-based, rat
Procedure: The rats were anesthetised with sevoflurane and then decapitated. The brains were brought out quickly and cooled to 2–4 °C. […] All experiments were performed at room temperature.
Vibrodissociation method was used to free CA1 pyramidal neurons from slices. This method allows for isolating cells without enzymatic treatment and keeping them in more native state. Pyramidal cells were isolated from the stratum pyramidale and distinguished from non-pyramidal cells on the basis of pyramidal-like somata and preserved apical dendrites.
To record membrane currents in response to applications of NMDA and glycine, the whole-cell configuration of patch clamp technique was used. Series resistance (<20 MΩ) was compensated by 70–80% and monitored during experiments. Only cells with stable holding currents were used in further analysis. The current signals were amplified using EPC-8 (HEKA Electronics, Lambrecht, Germany), filtered at 5 kHz, sampled, and stored on a personal computer. RSC-200 (BioLogic Science Instruments, Claix, France) perfusion system was used to apply the drugs under computer control. […] The pipettes with resistance of 2–5 MΩ were filled with the following solution (in mM): CsF 100, CsCl 40, NaCl 5, CaCl2 0.5, EGTA 5, HEPES 10 (pH adjusted to 7.2 with CsOH). […] Other reagents were purchased from MedChemExpress (Monmouth Junction, NJ, USA), Sigma (St. Louis, MO, USA), or Tocris Bioscience (Bristol, UK).
NMDA receptors were activated with 100 µM NMDA plus 10 µM glycine unless otherwise stated. […] Kinetics of transient processes of more than 20 ms duration were approximated with single or double exponential functions. In case of double exponential fitting, the weighted time constant was used.

[6] = molecular target: GLUN2B-containing NMDA receptor; details: fractionated rat brain membranes; read-out: IC50 of [3H]ifenprodil binding inhibition; cited from earlier work
[7] = system: animal pancreatitis models; details: cited from earlier work
[8] = Equation (2) fit, zδ free, reanalysis of the authors' earlier voltage dependence data [16],[17], read-out: Kvd
[9] = Equation (2) fit, zδ free, reanalysis of the authors' earlier voltage dependence data [16],[17], read-out: Kvi
[10] = Equation (2) with fixed zδ (0.55 mono-, 1.1 dicationic), reanalysis of earlier data [16],[17], read-out: Kvd, fixed zδ (converted)
[11] = Equation (2) with fixed zδ (0.55 mono-, 1.1 dicationic), reanalysis of earlier data [16],[17], read-out: Kvi, fixed zδ (converted)
[12] = −80 mV holding voltage, native NMDA receptors, earlier papers of the authors, read-out: IC50, −80 mV
[13] = −30 mV, 1 mM Mg2+, read-out: IC50 in the presence of magnesium

Kd (native NMDA receptors [1]; [8]): ~300 µM
Kd (native NMDA receptors [1]; [9]): 29 ± 8 µM
Kd (native NMDA receptors [1]; [10]): 800 µM
Kd (native NMDA receptors [1]; [11]): 25 µM
SMILES: CCOC(=O)c1ccc(OC(=O)CCCCCNC(=N)N)cc1 [Gabexate]
inhibition of native NMDA receptors (native NMDA receptors [2]): inhibited native NMDA receptors
nature of voltage-independent inhibition (native NMDA receptors [2]): agonist-dependent but non-competitive; also recorded: mostly voltage-independent and not competitive
type of channel block (interaction with channel gate) (native NMDA receptors [2]): did not demonstrate any signs of a “foot-in-the-door” or trapping channel block
IC50 (native NMDA receptors [2]; [12]): 16 ± 3 µM
voltage dependence of NMDA receptor inhibition (native NMDA receptors [3]): Completely voltage-independent
retinal protection [4]: did not demonstrate retinal protection activities

SMILES: CC(C(O)c1ccc(O)cc1)N1CCC(Cc2ccccc2)CC1 (stereo not shown) [Ifenprodil, ifenprodil]
share of high-affinity component in inhibition of NMDA receptor currents (native NMDA receptors [2]; CA1 pyramidal cells, biphasic concentration dependence): approximately 60%

SMILES: CC12CC3CC(C)(C1)CC(N)(C3)C2 [Memantine]
IC50 (native NMDA receptors [2]; [13]): 6.4 ± 0.5 µM

Kd (native NMDA receptors [1]; [8]): 12 ± 3 µM
Kd (native NMDA receptors [1]; [9]): 2.9 ± 0.5 µM
Kd (native NMDA receptors [1]; [10]): 10 µM and 10.5 µM
Kd (native NMDA receptors [1]; [11]): 3 µM
SMILES: N=C(N)c1ccc2cc(OC(=O)c3ccc(N=C(N)N)cc3)ccc2c1 [Nafamostat]
change of inhibition with increase of NMDA concentration from 30 to 1000 µM (native NMDA receptors [5]; holding voltage not stated): not attenuated significantly
effect on plateau/peak ratio (native NMDA receptors [2]): did not significantly change the plateau/peak ratio
overshoots after washout (native NMDA receptors [2]): did not demonstrate overshoots
type of channel block (interaction with channel gate) (native NMDA receptors [2]): foot-in-the-door
activity in the presence of magnesium (native NMDA receptors [2]; −30 mV, 1 mM Mg2+): attenuated in the presence of magnesium
IC50 (native NMDA receptors [2]; [13]): 1.7 ± 0.2 µM
IC50 (native NMDA receptors [2]; [12]): 0.2 ± 0.04 µM
voltage dependence of NMDA receptor inhibition (native NMDA receptors [3]): strongly voltage-dependent
IC50 [6]: 4.52 µM
retinal protection [4]: retinoprotective properties
activity in animal pancreatitis models [7]: significant activity

SMILES: N=C(N)c1ccc(OCCCCCOc2ccc(C(=N)N)cc2)cc1 [Pentamidine]
change of inhibition with increase of NMDA concentration from 30 to 1000 µM (native NMDA receptors [5]; holding voltage not stated): not attenuated significantly
Kd (native NMDA receptors [1]; [8]): 60 ± 25 µM
Kd (native NMDA receptors [1]; [9]): 8 ± 1 µM
Kd (native NMDA receptors [1]; [10]): 27 µM
Kd (native NMDA receptors [1]; [11]): 10 µM
IC50 (NMDA receptor antagonism) (native NMDA receptors [2]): submicromolar range
type of channel block (interaction with channel gate) (native NMDA receptors [2]): partial trapping
IC50 (native NMDA receptors [2]; [12]): 0.41 ± 0.08 µM
voltage dependence of NMDA receptor inhibition (native NMDA receptors [3]): strongly voltage-dependent

IC50 (native NMDA receptors [5]; +30 mV holding voltage, steady-state, read-out: IC50, steady-state component): 5.8 ± 1.5 µM
IC50 (native NMDA receptors [5]; −30 mV, 1 mM Mg2+, n = 7, read-out: IC50 in the presence of magnesium): 3.6 ± 1.1 µM
IC50 (native NMDA receptors [5]; −30 mV, no Mg2+, n = 5, read-out: IC50 in the absence of magnesium): 3.6 ± 1 µM
IC50 (native NMDA receptors [5]; −80 mV holding voltage, NMDA 100 µM + glycine 10 µM, steady-state (plateau) current, read-out: IC50, steady-state component): 3.5 ± 0.3 µM
IC50 (native NMDA receptors [5]; −80 mV, NMDA 100 µM + glycine 10 µM, peak current, read-out: IC50, peak component): 1.8 ± 0.4 µM
Kd (native NMDA receptors [1]; Equation (2) fit, zδ free, steady-state, read-out: Kvd, constant for voltage-dependent binding (deep site)): ~130 µM
Kd (native NMDA receptors [1]; Equation (2) fit, zδ free, steady-state, read-out: Kvi, constant for voltage-independent binding (shallow site)): 7 ± 1 µM
Kd (native NMDA receptors [1]; Equation (2) with fixed zδ 0.55 (monocation), read-out: Kvd, fixed zδ (converted)): 102 µM
Kd (native NMDA receptors [1]; Equation (2) with fixed zδ 0.55 (monocation), read-out: Kvi, fixed zδ (converted)): 7 ± 1 µM
SMILES: N=C(N)c1ccc2cc(OC(=O)c3ccc(NC4=NCCN4)cc3)ccc2c1 [Sepimostat]
nature of voltage-independent component of inhibition (native NMDA receptors [5]): agonist-dependent but non-competitive
% block (native NMDA receptors [5]; 5 µM, 3 mM NMDA, +30 mV, n = 4): 25 ± 4%
% block (native NMDA receptors [5]; 5 µM, 3 mM NMDA, −30 mV, n = 10): 20 ± 5%
inhibition at high NMDA concentrations (native NMDA receptors [5]; 5 µM, 1000 and 3000 µM NMDA, −80 mV): about 50%
% block (native NMDA receptors [5]; 5 µM, +30 mV, representative trace, Figure 2A): 47%
% block (native NMDA receptors [5]; 5 µM, −30 mV, NMDA 30 µM, Figure 5A): 78%
% block (native NMDA receptors [5]; 5 µM, −30 mV, NMDA 1 mM, Figure 5A): 26%
% block (native NMDA receptors [5]; 5 µM, −30 mV, representative trace, Figure 2A): 49%
% block (native NMDA receptors [5]; 5 µM, −80 mV, NMDA 30 µM, Figure 5A): 78%
% block (native NMDA receptors [5]; 5 µM, −80 mV, NMDA 1 mM, Figure 5A): 44%
% block (native NMDA receptors [5]; 5 µM, −80 mV, representative trace, Figure 2A): 57%
% block (native NMDA receptors [5]; 5 µM, −120 mV, representative trace, Figure 2A): 72%
plateau/peak ratio in the presence of blocker (native NMDA receptors [5]; 10 µM, −80 mV, control 0.6 ± 0.1, n = 4): 1.1 ± 0.3
normalized plateau/peak ratio ((IBS/IB0)/(ICS/IC0)) (native NMDA receptors [5]; 10 µM, −80 mV, n = 4): 1.8 ± 0.1
trapping in double-pulse protocol (native NMDA receptors [5]; 30 µM, n = 5): no signs of trapping
τfall of overshoot (native NMDA receptors [5]; 30 µM, overshoot falling phase, n = 4): 770 ± 140 ms
τrise of overshoot (native NMDA receptors [5]; 30 µM, overshoot rising phase, n = 4): 62 ± 15 ms
amplitude of overshoot relative to steady-state control response (native NMDA receptors [5]; 30 µM, washout in the presence of agonists, n = 4): 1.8 ± 0.3
% block (native NMDA receptors [5]; 30 µM, −80 mV): > 90%
amplitude of tail currents relative to steady-state control response (native NMDA receptors [5]; 30 µM, −80 mV, washout in the absence of agonists, n = 6): 1.3 ± 0.5
change of inhibition with increase of NMDA concentration (native NMDA receptors [5]; −30 mV): attenuated
competition with Mg2+ for binding site in channel pore (native NMDA receptors [5]; −30 mV, 1 mM Mg2+): does not compete
change of inhibition with increase of NMDA concentration from 30 to 1000 µM (native NMDA receptors [5]; −80 mV): significantly decreased
type of channel block (interaction with channel gate) (native NMDA receptors [5]; −80 mV): foot-in-the-door
voltage dependence of NMDA receptor inhibition (native NMDA receptors [1]; 5 µM): mostly voltage-independent with a small voltage-dependent component
IC50 [6]: 29.8 µM
retinal protection [4]: retinoprotective properties
activity in animal pancreatitis models [7]: significant activity

Source: article PMC10649274 (International Journal of Molecular Sciences, 2023)
